Assay results from patent publication US7189505B2, “Methods of assessing HIV integrase inhibitor therapy” (Tibotec BVBA, priority 2001, dated 2007).

Columns and labels:
Format in all cases: cell-based, HIV-1
[1] = test system: recombinant virus generated from HXB2D site-directed mutant virus, integrase M154I mutation; experiment: Antiviral experiment with recombinant virus from site-directed mutant virus, M154I; conditions: versus wild type, MT4-LTR-EGFP cells
Procedure: (§1) The integrase encoding sequence was amplified from either wildtype HIV-1 (IIIB) or NL4.3 virus, or HXB2D site-directed mutant viruses containing mutations in integrase (such as T66I, S153Y, M154I, or combinations thereof) (Hazuda et al., Science 2000, 287, 646–650), or patient samples. Starting from RNA, extracted from virus supernatant or plasma using the QIAamp® viral RNA extraction kit (Qiagen), cDNA was synthesized by reverse transcription (Expand™ reverse transcriptase, 30 min at 42° C.) with the primer 3′EGINT10 (SEQ ID NO 11), followed by a nested PCR. […]
(§2) Recombinant virus was produced by co-transfection by electroporation of the SmaI-linearized IN-deletion construct and the integrase amplicon into MT4 cells or MT4 cells equipped with an LTR driven reporter gene construct. Production of recombinant virus was evaluated by scoring the cytopathogenic effect (CPE) that is induced by HIV-infection of MT4 cells or by the LTR-driven reporter signal induced by HIV infection in MT4 reporter cells. […]

[2] = test system: recombinant virus generated from HXB2D site-directed mutant virus, integrase T66I/S153Y mutations; experiment: Antiviral experiment with recombinant virus from site-directed mutant virus, T66I/S153Y; conditions: versus wild type, MT4-LTR-EGFP cells
Procedure: as §1, §2

[3] = test system: recombinant virus generated from HXB2D site-directed mutant virus, integrase S153Y; experiment: Antiviral experiment with recombinant virus from site-directed mutant virus, S153Y; conditions: S153Y mutation in integrase; versus wild type; MT4-LTR-EGFP cells
Procedure: as §1, §2

[4] = test system: recombinant virus generated from HXB2D site-directed mutant virus, integrase T66I/M154I mutations; experiment: Antiviral experiment with recombinant virus from site-directed mutant virus, T66I/M154I; conditions: versus wild type, MT4-LTR-EGFP cells
Procedure: as §1, §2

[5] = test system: recombinant virus generated from HXB2D site-directed mutant virus, integrase T66I mutation; experiment: Antiviral experiment with recombinant virus from site-directed mutant virus, T66I; conditions: versus wild type, MT4-LTR-EGFP cells
Procedure: as §1, §2

CC(C)Oc1ccc(Cc2ccccc2)cc1C(=O)CC(=O)C(=O)O [compound 4, 2-(1-methylethyloxy)-, -dioxo-5-(phenylmethyl)-benzenebutanoic acid]
fold increase in EC50 [1]: 3 fold
fold increase in EC50 [2]: 10 fold
fold increase in EC50 [3]: 5 fold
fold increase in EC50 [4]: 10 fold
fold increase in EC50 [5]: 2 fold
